Molecules are shown by their SMILES.

Results on one compound are retold here after patent US20230247991A1, “ANTIMICROBIAL MIXTURE CONTAINING 4-(3-ETHOXY-4-HYDROXYPHENYL)BUTAN-2-ONE AND AN ORGANIC ACID COMPOUND, AND COSMETIC COMPOSITION CONTAINING SAME” (L'OREAL, priority 2017, published 2023).

Holding throughout (assay): MIC / FIC index synergy test, 96-well microplate, optical density at 620 nm
Holding throughout (assay type): cell-based

The subject of assay [1] is Pseudomonas aeruginosa ATCC 9027. To be noted: first concentration giving growth <= 25%. An excerpt: (§1) FIC Index=([…]) with: • MICa with B: minimum concentration of product A in the combination A+B which makes it possible to obtain an inhibitory effect • MICb with A: minimum concentration of product B in the combination A+B which makes it possible to obtain an inhibitory effect. • MICa: minimum inhibitory concentration of product A alone. • MICb: minimum inhibitory concentration of product B alone. […] As regards the combinations tested, MICa with b and MICb with a are the respective concentrations of A and of B in the combinations which make it possible to obtain a microbial growth percentage of less than or equal to 25%. […] The microbial strain Pseudomonas aeruginosa ATCC 9027 and a double-concentration nutritive broth liquid culture medium were used. A 96-well microplate and an incubation temperature of 32.5° C. are used. […] Successive dilutions were made with the 1‰ agar solution. 50 μl of each of the daughter solutions obtained containing compound A or B are added to the microplate wells. 100 μl of Sabouraud liquid nutrient broth inoculated at double concentration with the strain Candida albicans and 50 μl of aqueous 1‰ agar solution are also added thereto. 50 μl of each of the daughter solutions obtained containing compound A and 50 μl of each of the daughter solutions obtained containing compound B are added to the microplate wells. 100 μl of Sabouraud liquid nutrient broth inoculated at double concentration with the strain Candida albicans are also added thereto. […] The test as described above (tests, absorbance controls and growth control) was performed again to test the combination A+B on the following strains Enterococcus faecalis, Staphylococcus aureus, Pseudomonas aeruginosa, Candida albicans.

In assay [2] the test system is Staphylococcus aureus ATCC 6538. The settings on record: compound alone. The text has this:
FIC Index=([…]) with: • MICa with B: minimum concentration of product A in the combination A+B which makes it possible to obtain an inhibitory effect • MICb with A: minimum concentration of product B in the combination A+B which makes it possible to obtain an inhibitory effect. • MICa: minimum inhibitory concentration of product A alone. • MICb: minimum inhibitory concentration of product B alone. […] As regards the combinations tested, MICa with b and MICb with a are the respective concentrations of A and of B in the combinations which make it possible to obtain a microbial growth percentage of less than or equal to 25%. When the FIC index value is less than or equal to 1, it is considered that the combination of test compounds has a synergistic effect. The microbial strain Staphylococcus aureus ATCC 6538 and a double-concentration nutritive broth liquid culture medium were used. A 96-well microplate and an incubation temperature of 32.5° C. are used. […] Successive dilutions were made with the 1‰ agar solution. 50 μl of each of the daughter solutions obtained containing compound A or B are added to the microplate wells. 100 μl of Sabouraud liquid nutrient broth inoculated at double concentration with the strain Candida albicans and 50 μl of aqueous 1‰ agar solution are also added thereto. 50 μl of each of the daughter solutions obtained containing compound A and 50 μl of each of the daughter solutions obtained containing compound B are added to the microplate wells. 100 μl of Sabouraud liquid nutrient broth inoculated at double concentration with the strain Candida albicans are also added thereto. […] The test as described above (tests, absorbance controls and growth control) was performed again to test the combination A+B on the following strains Enterococcus faecalis, Staphylococcus aureus, Pseudomonas aeruginosa, Candida albicans.

The subject of assay [3] is Enterococcus faecalis ATCC 33186. To be noted: compound alone.
Description: as §1, with “strain Enterococcus faecalis” for “strain Pseudomonas aeruginosa”, “ATCC 33186” for “ATCC 9027”, “double-concentration BHI (Brain Heart Infusion)” for “double-concentration nutritive”

Assay [4] deals with Candida albicans ATCC 10231. To be noted: compound alone. The text has this:
FIC Index=([…]) with: • MICa with B: minimum concentration of product A in the combination A+B which makes it possible to obtain an inhibitory effect • MICb with A: minimum concentration of product B in the combination A+B which makes it possible to obtain an inhibitory effect. • MICa: minimum inhibitory concentration of product A alone. • MICb: minimum inhibitory concentration of product B alone. […] The microbial strain Candida albicans ATCC 10231 and a double-concentration Sabouraud broth liquid culture medium were used. A 96-well microplate and an incubation temperature of 32.5° C. are used. […] Successive dilutions were made with the 1‰ agar solution. 50 μl of each of the daughter solutions obtained containing compound A or B are added to the microplate wells. 100 μl of Sabouraud liquid nutrient broth inoculated at double concentration with the strain Candida albicans and 50 μl of aqueous 1‰ agar solution are also added thereto. 50 μl of each of the daughter solutions obtained containing compound A and 50 μl of each of the daughter solutions obtained containing compound B are added to the microplate wells. 100 μl of Sabouraud liquid nutrient broth inoculated at double concentration with the strain Candida albicans are also added thereto. In the two cases (test and control), the inoculum represents the concentration of the strain Candida albicans present in the final volume of the wells (200 μl) and is between 2 and 6χ 10^5 cfu/ml of Candida albicans.

Assay [5] relates to Aspergillus niger ATCC 6275. To be noted: for microbial growth percentage: compound alone.
[6] abbreviates: first concentration giving growth <= 25%.

`C/C=C/C=C/C(=O)O` [B2, sorbic acid]: the “MIC of compound alone” value in assay [1] and in assay [5] (setting [6]) was 0.5 weight % throughout. For the same compound, the microbial growth percentage in assay [2] (0.125 weight %) was 52%; in assay [2] (0.25 weight %), 28%; in assay [2] (0.5 weight %) it was −5%; in assay [3] (0.25 weight %), 53%; in assay [3] (0.5 weight %), 78%; in assay [3] (1 weight %) it was 0%. In addition, the microbial growth percentage in assay [4] (0.025 weight %) was 37%; in assay [4] (0.05 weight %), 24%; in assay [4] (0.1 weight %), 21%; in assay [5] (0.0125 weight %), 98%; in assay [5] (0.25 weight %), 95%; in assay [5] (0.5 weight %) it was 8%. For the same compound, the MIC alone in assay [2] (setting [6]) is on record as 0.5 weight %; in assay [4] (setting [6]) it was 0.1 weight %. Besides, the “% MIC alone” value in assay [3] (setting [6]) was 1 weight %.
